Read-outs that look alike come from different tables or passages of the source.
Legend:
[1] = tested on: Huh7/Rep-Feo HCV replicon (HCV RNA replication); type: cell-based, Hepatitis C virus (strain HCV—N, genotype 1b); conditions: for R-CompZ, compositeZ score for reporter gene assay: Table 2 antiviral hits of DOS set, 48 hours
Description: Development of the Huh7/Rep-Feo replicon assay. […] This replicon was derived from a chimpanzee infectious clone (strain HCV—N, genotype 1b). In this replicon, the structural genes have been replaced by a reporter gene. The chimeric reporter gene Feo encodes the firefly luciferase protein fused in-frame with neomycin phosphotransferase. This Huh7/Rep-Feo cell supports high levels of autonomous HCV RNA replication because it was derived from the HCV—N strain, which carries an adaptive mutation in NSSA that confers highlevel replication in tissue culture. Furthermore, the level of luciferase correlates well with levels of HCV RNA production, so that luciferase can be used as a reliable surrogate marker for HCV replication. The use of luciferase as a reporter permits quantitative and highthroughput detection of HCV replication levels. The specific use of firefly luciferase makes this replicon especially well-suited for automation, because the luciferase reagent can be added directly to the cell culture system prior to signal detection without the need for cell lysis, washing, or aspiration.
HCV Replicon System-Primary Screening. […] Briefly, this replicon harbors a subgenomic HCV genotype 1b sequence, fused to firefly luciferase, stably replicating under neomycin selection. Cells were propagated in Dulbecco's Modified Eagle's medium (DMEM) containing 10% fetal bovine serum (FBS) supplemented with 1% penicillin-streptomycin, and 500 μg of Geneticin (Invitrogen Corp., Carlsbad, Calif.)/mL. Cells were cultured in a 37° C., 5% CO2-humidified incubator for all experiments. To decrease day-today variability in the assay, a large homogenous population of subconfluent cells was passaged so that a similar lot of cells could be used throughout the HTS assay.
(§1) Primary Screening-HTS. Information about the library of known bioactive compounds that was screened and the general automated HTS protocol is available at http://www.broad.harvard.edu/chembio/index.html (see FIG. 10 for list of primary HTS with known bioactives library). Based on the results of optimization experiments in the 384-well plate format, the general HTS protocol was adapted as follows. Unless otherwise indicated, cells were incubated at all times in a humidified environment with 5% CO2 at 37° C. The assay was initiated by plating 30 μL of medium containing 2000 cells/well into white 384-well opaque-bottom plates (Nunc, Rochester, N.Y.) using an automated plate filler (Bio-Tek uFiller; Winsooki, Vt.) and allowing the cells to adhere for 24 hours. One hundred nL of compound stock solutions in DMSO was transferred from stock plates into the 384-well assay plates using an automated pin-based compound transfer robot (CyBio CyBi-Well vario; Woburn, Mass.). The final compound concentration in each well was estimated to be approximately 10-50 μM, with most compounds at 33 μM. The wells contained 0.33% DMSO by volume. The cells were then incubated for another 48 hours. The luminescent signal from each plate was detected using an automated plate reader (Perkin-Elmer Envision 1; Wellesley, Mass.). This screen was performed in duplicate. For negative controls, entire DMSO-treated control plates were employed, in addition to DMSO-only control wells that were incorporated into each compound assay plate. The cells were assayed for luciferase activity using the Bright-Glo Luciferase assay system (Promega), following the manufacturer's instructions. As a counter-screen, cell viability was assessed using the CellTiterGlo Luminescent cell viability assay (Promega) following the manufacturer's instructions.
Computational Data Analysis-Primary Screening. For each replicate, a mock-treatment distribution based on the total population of mock (DMSO) controls in that replicate was built (FIG. 11).

[2] = tested on: Huh7/Rep-Feo cells; assay: Primary HTS cell viability counter-screen (CellTiterGlo); type: cell-based, human; conditions: Table 2 antiviral hits of DOS set; approximately 10-50 μM, most at 33 μM; 48 hours
Protocol: as §1
Computational Data Analysis-Primary Screening. For each replicate, a mock-treatment distribution based on the total population of mock (DMSO) controls in that replicate was built (FIG. 11). Each compound was independently assigned a sign (ie, “+” or “−”) Z-score. Z-scores are calculated by dividing each background-subtracted, compound-treated well by the global standard deviation. A global standard deviation of the background-subtracted, mock-treated wells is calculated over the entire experiment. This distribution was determined to be consistent with experimental noise observed under cell-based assay conditions. The resulting collection of continuousvalued Z-scores represents the primary data set to be used for further analysis. The composite Z-score was calculated as a vector projection of each Z-score in duplicate onto an imaginary line of perfect reproducibility. Reproducibility is the cosine of the angle between each Z-score and that imaginary line; it is dimensionless and ranges from −1 to +1. […] The primary data were analyzed using the commercial software packages Pipeline Pilot (SciTegic, San Diego, Calif.) and SpotFire (SpotFire, Inc., Somerville, Mass.). The means of the negative, DMSO-only controls were considered the zero point.
Primary Screening—HTS: Unless otherwise indicated, cells were incubated at all times in a humidified environment with 5% CO2 at 37° C. The assay was initiated by plating 30 μl of medium containing 2,000 cells/well into white 384-well opaque-bottom plates (Nunc; Rochester, N.Y.) using an automated plate filler (Bio-Tek μFiller; Winsooki, Vt.) and allowing the cells to adhere for 24 hours. 100 nl of compound stock solutions in DMSO were transferred from stock plates into the 384-well assay plates using an automated pin-based compound transfer robot (CyBio CyBi-Well vario; Woburn, Mass.). The final compound concentration in each well was estimated to be approximately 10-50 μM, with most compounds at 33 μM. The wells contained 0.33% DMSO by volume. The cells were then incubated for another 48 hours. […]

[3] = tested on: OR6 cells harboring full-length genotype 1b HCV replicon ORN/C-5B/KE (HCV RNA replication); assay: microbe, parasite or virus in culture; type: cell-based, Hepatitis C virus (strain HCV—O; conditions: for proviral effect on HCV replication (in words) / antiviral activity (in words): OR6 full-length replicon; for proviral effect on HCV replication (in words): 0.1-100 μM
Description: (§2) HCV Replicon System-Secondary Assays. For validation, OR6 cells stably harboring the full-length genotype 1 replicon, ORN/C-5B/KE9 were used to examine compound activity in a more authentic viral polyprotein context. This replicon was derived from the 1B-2 strain (strain HCV—O, genotype 1b), in which the Renilla luciferase gene is introduced as a fusion protein with neomycin to facilitate the monitoring of HCV replication. This construct contains a tissue culture adaptive mutation in the NS3 region. Cells were cultured in an identical manner to the Huh7/Rep-Feo cells.
Secondary Assays-Hit Validation. Several hits from primary HTS, as well as functionally related compounds, were purchased from Sigma (St. Louis, Mo.), Calbiochem (San Diego, Calif.), and Microsource (Gaylordsville, Conn.). […] Ten mM of stock solutions of the individual compounds to be tested was prepared in the appropriate solvent (DMSO, ethanol, or H2O, according to the manufacturer's information) and stored at −20° C. Cells were seeded into 96-well plates at a density of 2000 cells/well in 100 μL of medium. The cells were incubated for 24 hours at 37° C. to obtain the optimal level of adherence. Solutions of candidate hit compounds were added to wells to achieve final concentrations of 0.1, 1, 10, 50, and 100 μM. The final concentration of DMSO or ethanol in every well was 1% or less by volume. Mock solutions were used as a negative control. PEG-IFN and ribavirin were used as positive controls at various concentrations, alone and in combination. The plates were then incubated at 37° C. with 5% CO2 for 48 hours before they were analyzed. Luminescent signal was generated using the Renilla luciferase assay kit (Promega) according to the manufacturer's instructions. Signal was then detected using a LumiCount (Packard BioScience Company) luminometer. Cell viability was assessed using CellTiter-Glo (Promega), following the manufacturer's instructions. All experiments were performed in triplicate.
Secondary Assays-Data Analysis. Values were presented as a percentage of mock treated control, which was arbitrarily set at 100%. Data were expressed as the mean (±) SD. […] Synergy calculations were performed using CalcuSyn (Biosoft; Cambridge, England).
as §2, with “System—Secondary Assays:” for “System-Secondary Assays.”, “For replicon” for “For”, “ORN/C-5B/KE” for “ORN/C-5B/KE9”, “(Burke J. Am. Chem. Soc. (2004) 126:14095-14104).” for “to examine compound activity in a more authentic viral polyprotein context.”, “the Neomycin resistance cassette” for “neomycin”
Secondary Assays—Hit Validation: 10 mM of stock solutions of the individual compounds to be tested were prepared in DMSO and stored at −20° C. Cells were seeded into 96-well plates at a density of 2,000 cells/well in 100 μl of medium. The cells were incubated for 24 hours at 37° C. to obtain the optimal level of adherence. Solutions of candidate hit compounds were added to wells to achieve varying final concentrations between 0.01 and 100 μM. The final concentration of DMSO or ethanol in every well was 1% or less by volume. Mock solutions were used as a negative control. Peginterferon-alfa-2b (PEG-Intron; Schering Corp.; Kenilworth, N.J.) and ribavirin (Sigma; St. Louis, Mo.) were used as positive controls at various concentrations, alone and in combination. The plates were then incubated at 37° C. with 5% CO2 for 48 hours before they were analyzed. Luminescent signal was generated using the Renilla luciferase assay kit (Promega; Madison, Wis.) according to the manufacturer's instructions. Signal was then detected using a LumiCount™ (Packard BioScience Company; Downers Grove, Ill.) luminometer.

[4] = approximately 10-50 μM, most at 33 μM
[5] = known bioactives library, approximately 10-50 μM, most at 33 μM

SMILES: O=C1C2C=C(I)C(CC2OCCCCCCO)[C@@]12CO2 (stereo partly shown) [SM_A5B2_2P142]
- R-CompZ, compositeZ score for reporter gene assay [1, 4]: −2.7176
- C-CompZ, compositeZ score for cell viability assay [2]: 0.5666

SMILES: CC(C)C[C@H](NC(=O)OCC1c2ccccc2-c2ccccc21)C(=O)O [N-(9-fluorenylmethoxycarbonyl)-L-leucine, reference compound]
- primary screen hit result (in words) [1, 5]: proviral hit
- primary screen hit result (in words) ([1]; known bioactives library, approximately 10-50 μM, most at 33 μM, listed as N-9-fluorenylmethoxycarbonyl-L-leucine): Proviral
- proviral effect on HCV replication (in words) ([3]; 48 hours): mild proviral activity

SMILES: C[C@@H](O/N=C1/[C@H]2CCn3c(=O)n(-c4ccccc4)c(=O)n3[C@H]2[C@H](O)[C@@H]2O[C@H]12)c1cn([C@H](CO)Cc2ccccc2)nn1 [BUCMLD-B10A14]
- R-CompZ, compositeZ score for reporter gene assay [1, 4]: −3.5069
- C-CompZ, compositeZ score for cell viability assay [2]: 1.128

SMILES: C[C@@]12COC[C@]13C=C(Br)C(C2)[C@@]1(CO1)C3=O [SM_A7C2_2P155]
- R-CompZ, compositeZ score for reporter gene assay [1, 4]: −2.6813
- C-CompZ, compositeZ score for cell viability assay [2]: 0.6028

SMILES: O=C1C2C=C(I)C(CC2OCCCCO)[C@@]12CCCO2 (stereo partly shown) [SM_A12B3]
- antiviral activity (in words) ([3]; 48 hours): negligible antiviral activity

SMILES: CC[C@H](C)C(=O)O[C@H]1C[C@H](O)C=C2C=C[C@H](C)[C@H](CC[C@@H](O)C[C@@H](O)CC(=O)O)[C@H]21 [Pravastatin, pravastatin]
- inhibition at 100 µM ([3]; Hepatitis C virus, OR6, read-out: inhibition of HCV replication): 30%

SMILES: CC(C)c1c(C(=O)Nc2ccccc2)c(-c2ccccc2)c(-c2ccc(F)cc2)n1CC[C@@H](O)C[C@@H](O)CC(=O)O [Atorvastatin, atorvastatin, reference compound]
- primary screen hit result (in words) [1]: Antiviral
- antiviral activity (in words) ([3]; 48 hours): strong antiviral effects

SMILES: CC[C@H](C)C(=O)O[C@H]1C[C@@H](C)C=C2C=C[C@H](C)[C@H](CC[C@@H]3C[C@@H](O)CC(=O)O3)[C@H]21 [Lovastatin, lovastatin]
- antiviral activity (in words) ([3]; 48 hours): weakly inhibitory

SMILES: CC(C)NCC(O)COc1cccc2ccccc12 (stereo not shown) [propranolol, reference compound]
- primary screen hit result (in words) [1]: Antiviral

SMILES: CC1(C)C=Cc2cc3ccc(=O)oc3cc2O1 [xanthylentin, reference compound]
- primary screen hit result (in words) [1, 5]: Proviral

SMILES: CC(C)(O)[C@@H]1Cc2cc3ccc(=O)oc3cc2O1 [marmesin, reference compound]
- primary screen hit result (in words) [1, 5]: Proviral

SMILES: C[C@]12C=CC(=O)C=C1CC[C@@H]1[C@@H]2[C@@H](O)C[C@@]2(C)[C@H]1CC[C@]2(O)C(=O)CO [prednisolone]
- proviral effect on HCV replication (in words) ([3]; 48 hours): increased HCV replication

SMILES: NC(=O)c1ncn([C@@H]2O[C@H](CO)[C@@H](O)[C@H]2O)n1 [ribavirin]
- IC50 ([3]; Hepatitis C virus, OR6, 48 h, read-out: IC50 (HCV RNA replication, luciferase), OR6 full-length genotype 1b replicon, 48 hours): 50 to 100 µM

SMILES: C[C@]12C=CC(=O)C=C1CC[C@H]1[C@@H]3C[C@@H](O)[C@](O)(C(=O)CO)[C@@]3(C)C[C@H](O)[C@@]12F [Triamcinolone, triamcinolone, reference compound]
- primary screen hit result (in words) [1]: Proviral
- proviral effect on HCV replication (in words) ([3]; 48 hours): confirmed to increase HCV replication

SMILES: COc1ccc(CCN(C)CCCC(C#N)(c2ccc(OC)c(OC)c2)C(C)C)cc1OC (stereo not shown) [verapamil]
- antiviral activity (in words) ([3]; 48 hours): did not exhibit antiviral activity

SMILES: CC(C)C1COc2cc3oc(=O)ccc3cc2O1 (stereo not shown) [dihydrobliquin, reference compound]
- primary screen hit result (in words) [1, 5]: Proviral

SMILES: Oc1ccc(-c2nc(-c3ccc(F)cc3)c(-c3ccncc3)[nH]2)cc1 [SB 202109, reference compound]
- primary screen hit result (in words) [1, 5]: inactive
- antiviral activity (in words) ([3]; 48 hours): inactive

Source: patent US20120094939A1, “ANTI-VIRAL COMPOUNDS, COMPOSITIONS AND METHODS” (priority 2007, published 2012)
